Data: the NIST ThermoML archive (doi:10.1021/je0341763)
± gives the expanded uncertainty stated by the source.

Experiments:
[1] = 298.15 K; for surface tension liquid-gas: Pendant drop shape; for mass density: 101.33 kPa, Liquid
[2] = xn = mol fraction of the nth substance listed; details: 298.15 K, Pendant drop shape

SMILES: Cc1ccccc1C [1,2-dimethylbenzene]
- surface tension liquid-gas [1]: 29.35 ± 0.3 mN/m
- mass density [1]: 875.92 ± 0.42 kg/m3

SMILES: Cc1ccccc1C [1,2-dimethylbenzene] + CC(C)=O
- surface tension liquid-gas ([2]; x2 = 0.0995): 29.13 ± 0.3 mN/m
- surface tension liquid-gas ([2]; x2 = 0.2016): 28.84 ± 0.3 mN/m
- surface tension liquid-gas ([2]; x2 = 0.3047): 28.45 ± 0.3 mN/m
- surface tension liquid-gas ([2]; x2 = 0.403): 28.07 ± 0.29 mN/m
- surface tension liquid-gas ([2]; x2 = 0.4999): 27.58 ± 0.29 mN/m
- surface tension liquid-gas ([2]; x2 = 0.6017): 26.99 ± 0.29 mN/m
- surface tension liquid-gas ([2]; x2 = 0.6991): 26.34 ± 0.28 mN/m
- surface tension liquid-gas ([2]; x2 = 0.7998): 25.65 ± 0.28 mN/m
- surface tension liquid-gas ([2]; x2 = 0.9002): 24.86 ± 0.27 mN/m

SMILES: Cc1cccc(C)c1 [1,3-dimethylbenzene]
- surface tension liquid-gas [1]: 28.36 ± 0.3 mN/m
- mass density [1]: 859.78 ± 0.49 kg/m3

SMILES: Cc1cccc(C)c1 [1,3-dimethylbenzene] + CC(C)=O
- surface tension liquid-gas ([2]; x2 = 0.1027): 28.16 ± 0.3 mN/m
- surface tension liquid-gas ([2]; x2 = 0.1996): 27.95 ± 0.3 mN/m
- surface tension liquid-gas ([2]; x2 = 0.3049): 27.67 ± 0.29 mN/m
- surface tension liquid-gas ([2]; x2 = 0.4029): 27.31 ± 0.29 mN/m
- surface tension liquid-gas ([2]; x2 = 0.4993): 26.91 ± 0.29 mN/m
- surface tension liquid-gas ([2]; x2 = 0.6024): 26.41 ± 0.28 mN/m
- surface tension liquid-gas ([2]; x2 = 0.7002): 25.86 ± 0.28 mN/m
- surface tension liquid-gas ([2]; x2 = 0.801): 25.27 ± 0.27 mN/m
- surface tension liquid-gas ([2]; x2 = 0.9014): 24.66 ± 0.27 mN/m

SMILES: Cc1cccc(C)c1 [1,3-dimethylbenzene] + CCC(C)=O
- surface tension liquid-gas ([2]; x2 = 0.1044): 27.99 ± 0.3 mN/m
- surface tension liquid-gas ([2]; x2 = 0.2015): 27.66 ± 0.3 mN/m
- surface tension liquid-gas ([2]; x2 = 0.3028): 27.29 ± 0.29 mN/m
- surface tension liquid-gas ([2]; x2 = 0.4011): 26.93 ± 0.29 mN/m
- surface tension liquid-gas ([2]; x2 = 0.5013): 26.53 ± 0.28 mN/m
- surface tension liquid-gas ([2]; x2 = 0.6009): 26.11 ± 0.28 mN/m
- surface tension liquid-gas ([2]; x2 = 0.6999): 25.68 ± 0.28 mN/m
- surface tension liquid-gas ([2]; x2 = 0.7999): 25.24 ± 0.27 mN/m
- surface tension liquid-gas ([2]; x2 = 0.9): 24.76 ± 0.27 mN/m

SMILES: Cc1ccc(C)cc1 [1,4-dimethylbenzene]
- surface tension liquid-gas [1]: 27.89 ± 0.29 mN/m
- mass density [1]: 856.85 ± 0.46 kg/m3

SMILES: Cc1ccc(C)cc1 [1,4-dimethylbenzene] + CC(C)=O
- surface tension liquid-gas ([2]; x2 = 0.1027): 27.69 ± 0.29 mN/m
- surface tension liquid-gas ([2]; x2 = 0.2022): 27.41 ± 0.29 mN/m
- surface tension liquid-gas ([2]; x2 = 0.3029): 27.11 ± 0.29 mN/m
- surface tension liquid-gas ([2]; x2 = 0.3993): 26.78 ± 0.28 mN/m
- surface tension liquid-gas ([2]; x2 = 0.5009): 26.41 ± 0.28 mN/m
- surface tension liquid-gas ([2]; x2 = 0.6006): 25.98 ± 0.28 mN/m
- surface tension liquid-gas ([2]; x2 = 0.7005): 25.51 ± 0.28 mN/m
- surface tension liquid-gas ([2]; x2 = 0.8002): 25.03 ± 0.27 mN/m
- surface tension liquid-gas ([2]; x2 = 0.9007): 24.51 ± 0.27 mN/m

SMILES: CC(C)=O [acetone]
- surface tension liquid-gas [1]: 24.01 ± 0.26 mN/m
- mass density [1]: 784.39 ± 0.61 kg/m3

SMILES: CCC(C)=O [butanone]
- surface tension liquid-gas [1]: 24.28 ± 0.27 mN/m
- mass density [1]: 799.62 ± 0.57 kg/m3

SMILES: CCC(C)=O [butanone] + Cc1ccc(C)cc1
- surface tension liquid-gas ([2]; x1 = 0.0999): 27.58 ± 0.29 mN/m
- surface tension liquid-gas ([2]; x1 = 0.2007): 27.27 ± 0.29 mN/m
- surface tension liquid-gas ([2]; x1 = 0.3001): 26.95 ± 0.29 mN/m
- surface tension liquid-gas ([2]; x1 = 0.402): 26.62 ± 0.28 mN/m
- surface tension liquid-gas ([2]; x1 = 0.5001): 26.28 ± 0.28 mN/m
- surface tension liquid-gas ([2]; x1 = 0.6006): 25.91 ± 0.28 mN/m
- surface tension liquid-gas ([2]; x1 = 0.7009): 25.51 ± 0.28 mN/m
- surface tension liquid-gas ([2]; x1 = 0.8009): 25.12 ± 0.27 mN/m
- surface tension liquid-gas ([2]; x1 = 0.8999): 24.71 ± 0.27 mN/m

SMILES: CCC(C)=O [butanone] + Cc1ccccc1C
- surface tension liquid-gas ([2]; x1 = 0.1001): 29 ± 0.3 mN/m
- surface tension liquid-gas ([2]; x1 = 0.2028): 28.58 ± 0.3 mN/m
- surface tension liquid-gas ([2]; x1 = 0.3001): 28.17 ± 0.3 mN/m
- surface tension liquid-gas ([2]; x1 = 0.4017): 27.68 ± 0.29 mN/m
- surface tension liquid-gas ([2]; x1 = 0.5006): 27.19 ± 0.29 mN/m
- surface tension liquid-gas ([2]; x1 = 0.6018): 26.65 ± 0.28 mN/m
- surface tension liquid-gas ([2]; x1 = 0.7012): 26.11 ± 0.28 mN/m
- surface tension liquid-gas ([2]; x1 = 0.8006): 25.55 ± 0.28 mN/m
- surface tension liquid-gas ([2]; x1 = 0.8994): 24.96 ± 0.27 mN/m
